Starred links: 1 amine or outer side, 2 acyl side, 3 side chain; linkers in the order of their positions; H or OH if unused. Positions of bridges follow the written chain, without caps; N, C: chain ends. Non-standard residues stand in square brackets, D forms with d. Residues, ends and D or L forms follow the SMILES beside them. *: point of attachment. dAsp(3R-OH) = N[C@@H](C(=O)O)[C@@H](O)C(=O)O; X1 = NC[C@H](O)[C@@H](N[*:1])C(=O)[*:2]; X2 = CCC(C)(O)[C@H](N[*:1])C(=O)[*:2]; d(aIle) = CC[C@H](C)[C@@H](N)C(=O)O; Myristoyl = CCCCCCCCCCCCCC(=O)*; dOrn = NCCC[C@@H](N)C(=O)O; hSer = N[C@@H](CCO)C(=O)O
Experiments:
[1] = mouse, in vivo
in vivo = details: female, BALB/c, mouse
[2] = iv, 5 mg/kg, Mean plasma concentration

## CCCCCCCCCCCCCC(=O)N[C@H](CCCN)C(=O)N[C@@H](CO)C(=O)N[C@H](C(=O)N[C@@H](C(=O)N[C@@H](C(=O)N[C@@H]1C(=O)NCC(=O)N[C@@H](C(C)(O)CC)C(=O)N[C@H]([C@@H](C)CC)C(=O)N[C@@H](CCO)C(=O)N[C@@H](C)C(=O)N[C@H]([C@@H](C)CC)C(=O)N[C@@H](CCC(=O)O)C(=O)O[C@@H]1C)[C@@H](O)CN)[C@@H](O)C(=O)O)C(C)C (stereo partly drawn) [Compound 1, Turnercyclamycin A] (Myristoyl-[dOrn]SV[dAsp(3R-OH)][X1]TG[X2][d(aIle)][hSer]A[d(aIle)]E; ester 6-C)
[1]
  B.W. (g): −
  Body Temperature: −
  Convulsion: −
  Convulsion C.T.C-T: −
  Dec. Exploration: −
  Dec. Palpebral: −
  Dec. Palpebral Size: −
  Dec. Startle: −
  Dec. Startle Response: −
  Dec. Touch: −
  Dec. Touch Response: −
  Diarrhea: −
  Grip Strength: −
  Hyperactivity: −
  Inc. Exploration: −
  Inc. Palpebral Size: −
  Inc. Startle: −
  Lacrimation: −
  Limb Tone: +
  Piloerection: ±
  Pinna: −
  Placing: −
  Righting: −
  Salivation F.V.: −
  Skin Color: −
  Straub Tail: −
  adverse effects noted after the two administrations: decrease in adnominal tone, limb tone, and spontaneous activity, and tremor, piloerection, and increase in the respiration rate (fast)
  dose up to which well tolerated in mice: up to 50 mg/kg
  more pronounced adverse effects elicited: vocalization, ataxia, reactivity, and hunch back
In vivo
  clearance: 0.29 mL/min/kg
In vivo; iv, 5 mg/kg
  AUC(0-inf): 290 µg·h/mL
  AUC(0-t): 285 µg·h/mL
  C0: 33700 ng/mL
  MRT: 5.83 h
  Vd: 0.1 L/kg
  clearance: 0.29 mL/min/kg
  half-life: 4.35 h
In vivo; [2]
  level at 0.05 h: 53300 ng/mL
  level at 0.167 h: 38600 ng/mL
  level at 0.5 h: 33700 ng/mL
  level at 1 h: 29300 ng/mL
  level at 2 h: 26200 ng/mL
  level at 4 h: 22500 ng/mL
  level at 8 h: 12000 ng/mL
  level at 24 h: 931 ng/mL
In vivo; iv, 5 mg/kg, Sample concentration in plasma (individual mouse)
  level at 0.5 h: 34400 ng/mL

Source: patent US12215129B2, “Antibacterial cyclopeptides targeting acinetobacter and other gram-negative pathogens” (priority 2020, dated 2025)
